This passage reports EC50 and cAMP accumulation results from ChEMBL document CHEMBL1136685, “Structure-activity relationship of cyclic peptide penta-c[Asp-His(6)-DPhe(7)-Arg(8)-Trp(9)-Lys]-NH(2) at the human melanocortin-1 and -4 receptors: His(6) substitution” (Bioorg Med Chem Lett, 2003).

pEC50: −log10 of the molar value.

Common to all, as to assay type: functional
Experiment [1] concerns the target T1, Melanocyte-stimulating hormone receptor (Homo sapiens, UniProt Q01726). Put plainly: Agonist activity at human melanocortin receptor (hMC1R).
Target sequence in this assay (Q01726 whole entry): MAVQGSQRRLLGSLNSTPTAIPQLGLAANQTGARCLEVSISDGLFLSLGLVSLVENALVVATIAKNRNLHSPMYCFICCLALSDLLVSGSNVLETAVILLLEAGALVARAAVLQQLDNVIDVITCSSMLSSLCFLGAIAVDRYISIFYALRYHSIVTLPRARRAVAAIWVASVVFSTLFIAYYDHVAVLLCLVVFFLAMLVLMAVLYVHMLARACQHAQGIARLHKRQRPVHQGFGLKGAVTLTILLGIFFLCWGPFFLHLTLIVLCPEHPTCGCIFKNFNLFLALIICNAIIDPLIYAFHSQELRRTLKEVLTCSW
A further experiment deals with Melanocortin receptor 4 (Homo sapiens, UniProt P32245). Put plainly: Agonist activity at human melanocortin receptor (hMC4R).
Experiment [2] concerns the target T1, Melanocyte-stimulating hormone receptor. Put plainly: Agonistic activity against human melanocortin receptor (hMC1R) for cAMP accumulation at a concentration of 50 uM.
Target sequence in this assay (Q01726 whole entry, looked up): as the sequence (Q01726 whole entry) above

Sequence of Melanocortin receptor 4 (P32245 whole entry): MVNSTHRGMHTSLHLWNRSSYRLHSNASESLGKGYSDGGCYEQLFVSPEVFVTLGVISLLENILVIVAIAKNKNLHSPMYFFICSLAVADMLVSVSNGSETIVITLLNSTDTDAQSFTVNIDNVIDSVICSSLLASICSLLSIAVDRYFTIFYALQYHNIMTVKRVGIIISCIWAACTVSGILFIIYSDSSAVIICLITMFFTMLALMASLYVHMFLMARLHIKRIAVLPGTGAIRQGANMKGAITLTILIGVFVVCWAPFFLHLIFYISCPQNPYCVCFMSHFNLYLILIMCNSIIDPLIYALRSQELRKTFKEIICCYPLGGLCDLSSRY

With `CCCCC(=O)N[C@H]1CC(=O)NCCCC[C@@H](C(N)=O)NC(=O)[C@H](Cc2c[nH]c3ccccc23)NC(=O)[C@H](CCCNC(=N)N)NC(=O)[C@@H](Cc2ccccc2)NC(=O)C2(CCc3c(cccc3OCC)C2)NC1=O` (mixture of isomers), the pEC50 in experiment [1] was 5.89; at Melanocortin receptor 4, 7.46. Taken in the same sequence, the figures for `CCCC[C@H](NC(C)=O)C(=O)N[C@H]1CC(=O)NCCCC[C@@H](C(N)=O)NC(=O)[C@H](Cc2c[nH]c3ccccc23)NC(=O)[C@H](CCCN=C(N)N)NC(=O)[C@@H](Cc2ccccc2)NC(=O)[C@H](CCC(N)=O)NC1=O` were 9.52 and 9.52. In the case of `CCCCC(=O)N[C@@H]1CC(=O)NCCCC[C@@H](C(N)=O)NC(=O)[C@H](Cc2c[nH]c3ccccc23)NC(=O)[C@@H](CCCN=C(N)N)NC(=O)[C@H](Cc2ccccc2)NC(=O)C2(CCc3c(Cl)cccc3C2)NC1=O` (mixture of isomers), in experiment [2], the cAMP accumulation is 30%. For the compound `CCCCC(=O)N[C@H]1CC(=O)NCCCC[C@@H](C(N)=O)NC(=O)[C@H](Cc2c[nH]c3ccccc23)NC(=O)[C@H](CCCN=C(N)N)NC(=O)[C@@H](Cc2ccccc2)NC(=O)[C@@]2(CCc3ccccc3C2)NC1=O` (mixture of isomers), the pEC50 is 6.05 in experiment [1] and 7.19 at Melanocortin receptor 4. In turn, `CCCCC(=O)N[C@H]1CC(=O)NCCCC[C@@H](C(N)=O)NC(=O)[C@H](Cc2c[nH]c3ccccc23)NC(=O)[C@H](CCCN=C(N)N)NC(=O)[C@@H](Cc2ccccc2)NC(=O)C2(CCc3c(Br)cccc3C2)NC1=O` (single isomer, unassigned; form 1) showed a pEC50 at Melanocortin receptor 4 of 7.82. `CCCCC(=O)N[C@H]1CC(=O)NCCCC[C@@H](C(N)=O)NC(=O)[C@H](Cc2c[nH]c3ccccc23)NC(=O)[C@H](CCCN=C(N)N)NC(=O)[C@@H](Cc2ccccc2)NC(=O)[C@@H]2Cc3ccccc3CN2C1=O`: the pEC50 was 8.30 in experiment [1] and 8.52 on Melanocortin receptor 4. Taken in the same sequence, the figures for `CCCCC(=O)N[C@H]1CC(=O)NCCCC[C@@H](C(N)=O)NC(=O)[C@H](Cc2c[nH]c3ccccc23)NC(=O)[C@H](CCCN=C(N)N)NC(=O)[C@@H](Cc2ccccc2)NC(=O)[C@@H]2c3ccccc3CN2C1=O` (single isomer, unassigned; form 2) were 8.52 and 8.70. On to `CCCCC(=O)N[C@@H]1CC(=O)NCCCC[C@@H](C(N)=O)NC(=O)[C@H](Cc2c[nH]c3ccccc23)NC(=O)[C@@H](CCCN=C(N)N)NC(=O)[C@H](Cc2ccccc2)NC(=O)C2(CCc3cccc(Br)c3C2)NC1=O` (mixture of isomers), for which the cAMP accumulation in experiment [2] came out at 60%. For `CCCCC(=O)N[C@H]1CC(=O)NCCCC[C@@H](C(N)=O)NC(=O)[C@H](Cc2c[nH]c3ccccc23)NC(=O)[C@H](CCCNC(=N)N)NC(=O)[C@@H](Cc2ccccc2)NC(=O)C2(CCc3ccc(Br)cc3C2)NC1=O` (mixture of isomers), the pEC50 was 6.85 in experiment [1] and 8.00 on Melanocortin receptor 4.

In the case of `CCCCC(=O)N[C@H]1CC(=O)NCCCC[C@@H](C(N)=O)NC(=O)[C@H](Cc2c[nH]c3ccccc23)NC(=O)[C@H](CCCN=C(N)N)NC(=O)[C@@H](Cc2ccccc2)NC(=O)C2(CCc3c(Br)cccc3C2)NC1=O` (single isomer, unassigned; form 2), the pEC50 at Melanocortin receptor 4 is 7.39. As for `CCCCC(=O)N[C@@H]1CC(=O)NCCCC[C@@H](C(N)=O)NC(=O)[C@H](Cc2c[nH]c3ccccc23)NC(=O)[C@@H](CCCN=C(N)N)NC(=O)[C@H](Cc2ccccc2)NC(=O)C2(CCc3c(Br)cccc3C2)NC1=O` (single isomer, unassigned; form 1), in experiment [2], the cAMP accumulation is 80%. `CCCCC(=O)N[C@H]1CC(=O)NCCCC[C@@H](C(N)=O)NC(=O)[C@H](Cc2c[nH]c3ccccc23)NC(=O)[C@H](CCCN=C(N)N)NC(=O)[C@@H](Cc2ccccc2)NC(=O)C2(CCc3c(cccc3N(C)C)C2)NC1=O` (mixture of isomers): the values for the pEC50 (in experiment [1]; on Melanocortin receptor 4) were 6.32 and 7.35, respectively.

As to `CCCCC(=O)N[C@H]1CC(=O)NCCCC[C@@H](C(N)=O)NC(=O)[C@H](Cc2c[nH]c3ccccc23)NC(=O)[C@H](CCCN=C(N)N)NC(=O)[C@@H](Cc2ccccc2)NC(=O)[C@H](Cc2ccc(C(F)(F)F)cc2)NC1=O`, the pEC50 was 7.92 in experiment [1] and 8.70 on Melanocortin receptor 4. `CCCCC(=O)N[C@H]1CC(=O)NCCCC[C@@H](C(N)=O)NC(=O)[C@H](Cc2c[nH]c3ccccc23)NC(=O)[C@H](CCCN=C(N)N)NC(=O)[C@@H](Cc2ccccc2)NC(=O)[C@@]2(CCc3c(CC)cccc3C2)NC1=O`: the pEC50 in experiment [1] was 6.38; at Melanocortin receptor 4, 8.10. Compound `CCCCC(=O)N[C@H]1CC(=O)NCCCC[C@@H](C(N)=O)NC(=O)[C@H](Cc2c[nH]c3ccccc23)NC(=O)[C@H](CCCN=C(N)N)NC(=O)[C@@H](Cc2ccccc2)NC(=O)C2(CCc3cc(Cl)ccc3C2)NC1=O` (mixture of isomers) gave a pEC50 on Melanocortin receptor 4 of 7.48.

`CCCCC(=O)N[C@@H]1CC(=O)NCCCC[C@@H](C(N)=O)NC(=O)[C@H](Cc2c[nH]c3ccccc23)NC(=O)[C@@H](CCCN=C(N)N)NC(=O)[C@H](Cc2ccccc2)NC(=O)C2(CCc3c(Br)cccc3C2)NC1=O` (single isomer, unassigned; form 2) yielded a cAMP accumulation in experiment [2] of 70%. As to `CCCCC(=O)N[C@H]1CC(=O)NCCCC[C@@H](C(N)=O)NC(=O)[C@H](Cc2c[nH]c3ccccc23)NC(=O)[C@H](CCCN=C(N)N)NC(=O)[C@@H](Cc2ccccc2)NC(=O)[C@@]2(CCc3c(cccc3OC)C2)NC1=O` (mixture of isomers), the pEC50 in experiment [1] is 6.13; on Melanocortin receptor 4 it was 8.30. Consider `CCCCC(=O)N[C@H]1CC(=O)NCCCC[C@@H](C(N)=O)NC(=O)[C@H](Cc2c[nH]c3ccccc23)NC(=O)[C@H](CCCNC(=N)N)NC(=O)[C@@H](Cc2ccccc2)NC(=O)C2(CCc3c(cccc3C(C)C)C2)NC1=O` (mixture of isomers), for which the pEC50 is 6.32 in experiment [1] and 8.15 on Melanocortin receptor 4. Compound `CCCCC(=O)N[C@H]1CC(=O)NCCCC[C@@H](C(N)=O)NC(=O)[C@H](Cc2c[nH]c3ccccc23)NC(=O)[C@H](CCCN=C(N)N)NC(=O)[C@@H](Cc2ccccc2)NC(=O)C2(CCc3cc(Br)ccc3C2)NC1=O` (mixture of isomers) gave a pEC50 on Melanocortin receptor 4 of 7.43.

For the compound `CCCCC(=O)N[C@H]1CC(=O)NCCCC[C@@H](C(N)=O)NC(=O)[C@H](Cc2c[nH]c3ccccc23)NC(=O)[C@H](CCCN=C(N)N)NC(=O)[C@@H](Cc2ccccc2)NC(=O)C2(CCc3cccc(Br)c3C2)NC1=O` (mixture of isomers), at Melanocortin receptor 4, the pEC50 is 6.75. On Melanocortin receptor 4, `CCCCC(=O)N[C@H]1CC(=O)NCCCC[C@@H](C(N)=O)NC(=O)[C@H](Cc2c[nH]c3ccccc23)NC(=O)[C@H](CCCN=C(N)N)NC(=O)[C@@H](Cc2ccccc2)NC(=O)C2(CCc3c(Cl)cccc3C2)NC1=O` (mixture of isomers) gave a pEC50 of 8.05. For `CCCCC(=O)N[C@H]1CC(=O)NCCCC[C@@H](C(N)=O)NC(=O)[C@H](Cc2c[nH]c3ccccc23)NC(=O)[C@H](CCCN=C(N)N)NC(=O)[C@@H](Cc2ccccc2)NC(=O)C2(CCc3c(cccc3OC(C)C)C2)NC1=O` (mixture of isomers), the pEC50 is 5.88 in experiment [1] and 8.15 at Melanocortin receptor 4. Take `CCCCC(=O)N[C@H]1CC(=O)NCCCC[C@@H](C(N)=O)NC(=O)[C@H](Cc2c[nH]c3ccccc23)NC(=O)[C@H](CCCNC(=N)N)NC(=O)[C@@H](Cc2ccccc2)NC(=O)C2(Cc3ccccc3C2)NC1=O`: the results for the pEC50 (in experiment [1]; on Melanocortin receptor 4) were 6.43 and 7.19, respectively.

As usually defined, the pEC50 is −log10 of the EC50, conventionally taken in molar units. The low end stands for a large EC50, the high end for a small EC50.
